Reference: PubChem BioAssay (NCI)
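Tested at 5 concentrations; 48 h exposure; 96-well plates; endpoints linearly interpolated, else capped at highest concentration. The concentration for full growth arrest is given as TGI.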

Tests used:
Experiment in all cases: NCI tumour cell line growth inhibition, 48 h
HT29 colon = tested on: HT29 colon
HS 578T breast = tested on: HS 578T breast
ACHN renal = tested on: ACHN renal
CCRF-CEM leukemia = tested on: CCRF-CEM leukemia
SK-OV-3 ovarian = tested on: SK-OV-3 ovarian
OVCAR-4 ovarian = tested on: OVCAR-4 ovarian
RPMI-8226 leukemia = tested on: RPMI-8226 leukemia
M14 melanoma = tested on: M14 melanoma
NCI/ADR-RES ovarian = tested on: NCI/ADR-RES ovarian
HL-60(TB) leukemia = tested on: HL-60(TB) leukemia
U251 CNS = tested on: U251 CNS
HCT-116 colon = tested on: HCT-116 colon
CAKI-1 renal = tested on: CAKI-1 renal
HOP-62 NSCLC = tested on: HOP-62 NSCLC
EKVX NSCLC = tested on: EKVX NSCLC

Row | SMILES | TGI (HT29 colon) | TGI (HS 578T breast) | TGI (ACHN renal) | TGI (CCRF-CEM leukemia) | TGI (SK-OV-3 ovarian) | TGI (OVCAR-4 ovarian) | TGI (RPMI-8226 leukemia) | TGI (M14 melanoma) | TGI (NCI/ADR-RES ovarian) | TGI (HL-60(TB) leukemia) | TGI (U251 CNS) | TGI (HCT-116 colon) | TGI (CAKI-1 renal) | TGI (HOP-62 NSCLC) | TGI (EKVX NSCLC)
1 | O=C1C=C(OCCCCl)C(=O)c2c(O)ccc(O)c21 | 1.31 µM | 6.56 µM | 2.96 µM | 3.75 µM | 3.85 µM | 1.71 µM | 6.01 µM | 0.341 µM | 7.3 µM | 3.03 µM | 3.56 µM | 1.28 µM | 3.4 µM | 2.75 µM | 3.19 µM
2 | COc1ccc2cc(-c3nc(N)nc(N4N=C(C)CC4(C)C)n3)c(=N)oc2c1 | 31.7 µM | 66.4 µM | 31.8 µM | 41.4 µM | 53.9 µM | 50.5 µM | 36.6 µM | 38.1 µM | > 100 µM | 43.9 µM | 41.9 µM | 35 µM | 38 µM | 41.6 µM | 67.2 µM
3 | Nc1nc2c(ncn2Cc2ccccc2CO)c(=O)[nH]1 | > 100 µM | > 100 µM | > 100 µM | > 100 µM | > 100 µM | > 100 µM | > 100 µM | > 100 µM | > 100 µM | > 100 µM | > 100 µM | > 100 µM | > 100 µM | > 100 µM | > 100 µM
4 | Cc1cccc(-c2cc(=O)c3c(C)cc(C)nc3[nH]2)c1 | 19.1 µM | > 20.3 µM | > 100 µM | > 86.5 µM | > 100 µM | > 100 µM | > 52.1 µM | > 100 µM | 4.68 µM | 4.34 µM | 37.6 µM | > 39.1 µM | > 100 µM | > 100 µM | > 100 µM
5 | Cc1ccc(S(=O)c2sccc2C=O)cc1 (stereo not given) | 45 µM | 65.9 µM | > 100 µM | 56 µM | > 100 µM | 75 µM | 76.2 µM | 58.1 µM | 67.2 µM | 48.2 µM | 34.6 µM | 31 µM | > 100 µM | 68.1 µM | > 100 µM
6 | O=C(CSc1nc2ccc(I)cc2c(=O)n1Cc1ccccc1)NNC(=O)c1ccccc1 | > 100 µM | 9.4 µM | 75.4 µM | > 100 µM | 44.9 µM | 57.4 µM | 28 µM | > 100 µM | 49 µM | > 100 µM | > 100 µM | > 100 µM | 12.3 µM | 22.7 µM | 17.9 µM
7 | COC(=O)[C@H](Cc1ccc(OC(C)(C)C)cc1)N[C@H](C)C(=O)N[C@@H](Cc1ccccc1)C(=O)OCc1ccccc1 | > 100 µM | > 100 µM | > 100 µM | > 100 µM | > 100 µM | > 100 µM | > 100 µM | > 100 µM | > 100 µM | > 100 µM | > 100 µM | > 100 µM | > 100 µM | > 100 µM | > 100 µM
8 | CC(OC(=O)C(CC(=O)OC(C)(C)C)NC(=O)OC(C)(C)C)C(=O)OCc1ccccc1 (stereo not given) | > 100 µM | > 100 µM | > 100 µM | > 100 µM | > 100 µM | > 100 µM | > 100 µM | > 100 µM | > 100 µM | > 100 µM | > 100 µM | > 100 µM | > 100 µM | > 100 µM | > 100 µM
9 | O=C(O)CCCc1ccc2ccccc2c1 | > 100 µM | > 100 µM | > 100 µM | > 100 µM | > 100 µM | > 100 µM | > 100 µM | > 100 µM | > 100 µM | > 100 µM | > 100 µM | > 100 µM | > 100 µM | > 100 µM | > 100 µM
10 | CCOC(=O)C(=O)/C(=C/N1C(=O)CC(=O)NC1=S)C(=O)OCC | > 100 µM | > 100 µM | > 100 µM | > 100 µM | > 100 µM | > 100 µM | > 100 µM | > 100 µM | > 100 µM | > 100 µM | > 100 µM | > 100 µM | > 100 µM | > 100 µM | > 100 µM
11 | CCN(CC)CCNc1ccc2nnn3c4ccc(O)cc4c(=O)c1c23 | 15 µM | 26.6 µM | 14.2 µM | 31.6 µM | 40.3 µM | 12.6 µM | 19.8 µM | 20.1 µM | 12.2 µM | 25.1 µM | 18.2 µM | 15.6 µM | 13.4 µM | 14 µM | 21.5 µM
12 | CCOC(=O)C(C(=S)SC)c1nn2c(=O)cc(C)nc2s1 (stereo not given) | 36.9 µM | 44.9 µM | 37.8 µM | 77.5 µM | 47.4 µM | 58.4 µM | 48.7 µM | 29.8 µM | 54.8 µM | 35.3 µM | 30.6 µM | 34.3 µM | 37.3 µM | 42.7 µM | 34.3 µM
13 | CCOc1cc2oc(C)cc(=O)c2c(OC)c1C=Nc1ccc(Cn2c(C)nc3ccccc32)cc1 | > 100 µM | > 100 µM | > 100 µM | > 100 µM | > 100 µM | > 100 µM | > 100 µM | > 100 µM | > 100 µM | > 100 µM | > 100 µM | > 100 µM | > 100 µM | > 100 µM | > 100 µM
14 | COC(=O)[C@H](CC(C)C)Nc1c(O)c2c(c(O)c1Cl)C(=O)C=CC2=O | 9.41 µM | > 10 µM | > 10 µM | > 10 µM | > 10 µM | > 10 µM | > 10 µM | > 10 µM | > 10 µM | > 10 µM | > 10 µM | 5.35 µM | > 10 µM | > 10 µM | > 10 µM
15 | O=c1cn[nH]c(=S)n1/N=C/c1c[nH]c2ccccc12 | > 100 µM | > 100 µM | > 100 µM | 30.3 µM | > 100 µM | > 100 µM | > 100 µM | > 100 µM | > 100 µM | 49.5 µM | > 100 µM | > 100 µM | > 100 µM | > 100 µM | > 100 µM
16 | COc1ccc(/C=C2\CCC/C(=C\c3ccc(O)c(CN4CCCCC4)c3)C2=O)cc1 | 19.9 µM | > 100 µM | > 82.7 µM | > 100 µM | 40.7 µM | > 79.5 µM | > 43.8 µM | 35.3 µM | 32.8 µM | > 100 µM | 33.9 µM | 13.1 µM | > 74.6 µM | > 56.3 µM | 51.7 µM
